According to patent US20240350418A1, “LIPID-BASED COMPOSITION FOR ORAL ADMINISTRATION OF BRADYKININ B2-RECEPTOR ANTAGONISTS” (PHARVARIS GMBH, priority 2021, published 2024):

What was measured:
[1] = molecular target: T1, rat B2 receptor (Rattus norvegicus, UniProt P25023); assay: In vitro pharmacology testing, antagonist potency; format: biochemical
T1 sequence (P25023 1-396): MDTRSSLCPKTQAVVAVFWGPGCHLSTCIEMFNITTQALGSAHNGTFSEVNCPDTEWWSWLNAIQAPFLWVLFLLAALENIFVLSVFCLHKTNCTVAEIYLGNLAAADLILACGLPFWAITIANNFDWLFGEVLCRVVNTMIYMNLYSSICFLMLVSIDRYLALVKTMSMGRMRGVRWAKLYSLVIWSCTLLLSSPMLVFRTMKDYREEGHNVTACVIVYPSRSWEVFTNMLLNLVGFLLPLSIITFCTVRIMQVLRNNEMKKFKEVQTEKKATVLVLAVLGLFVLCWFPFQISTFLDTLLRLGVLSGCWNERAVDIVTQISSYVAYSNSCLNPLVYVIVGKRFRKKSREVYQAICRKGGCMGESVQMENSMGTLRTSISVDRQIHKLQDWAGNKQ

[2] = Single dose pharmacokinetic study in monkeys; format: in vivo, Cynomolgus monkeys; settings: after administration, except one animal treated with the Test Formulation
Protocol: The pharmacokinetic properties of a liquid composition according to the invention after a single oral administration in Cynomolgus monkeys was studied and compared with those of a suspension of the same API in an aqueous carrier comprising methylcellulose (1 wt. %). The Test Formulation was based on composition E of Example 1, except that the concentration of the API was 5 mg/mL in essentially the same liquid vehicle as composition E. The Comparative Formulation comprised the same API at a concentration of 2 mg/mL, formulated as an aqueous drug suspension further comprising methylcellulose (1 wt %). […]
The pharmacokinetic parameters were determined from the individual plasma concentrations by non-compartmental analysis, using Kinetica™ 4.4.1 (Thermo Fisher). […]
Maximum plasma concentration (Cmax), sampling time of Cmax (Tmax), and sampling time of the last plasma concentration >LLOQ (Tlast) parameters were determined from the observations. The area under the plasma concentration-time curve from the time of dosing to the last quantifiable concentration was calculated using the linear up/logarithmic down trapezoidal rule (AUClast). At least 3 consecutive quantifiable concentrations had to be available for AUC calculation. […]
The percentage of extrapolated AUC from Tlast to infinity was calculated by Kinetica™ 4.4.1, using the following equation: […]

[3] = test system: monkey B2 receptor; assay: In vitro pharmacology testing, antagonist potency; format: biochemical
[4] = molecular target: T2, bradykinin B2 receptor (Homo sapiens, UniProt P30411); assay: Estimated therapeutic efficacious threshold plasma concentration; format: in vivo
T2 sequence (P30411 1-391): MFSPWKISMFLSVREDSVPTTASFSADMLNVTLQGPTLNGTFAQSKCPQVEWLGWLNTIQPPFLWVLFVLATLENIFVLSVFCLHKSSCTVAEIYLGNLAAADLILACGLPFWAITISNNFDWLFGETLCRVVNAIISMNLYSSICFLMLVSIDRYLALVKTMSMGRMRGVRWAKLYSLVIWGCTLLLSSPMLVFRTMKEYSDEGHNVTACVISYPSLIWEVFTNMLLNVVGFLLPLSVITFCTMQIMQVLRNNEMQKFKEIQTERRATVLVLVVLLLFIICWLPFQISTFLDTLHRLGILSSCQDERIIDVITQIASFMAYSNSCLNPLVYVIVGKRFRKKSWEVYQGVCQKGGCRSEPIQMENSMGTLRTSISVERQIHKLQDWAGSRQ

[5] = molecular target: T3, human B2 receptor (Homo sapiens, UniProt P30411); assay: In vitro pharmacology testing, antagonist potency; format: biochemical
T3 sequence (P30411 1-391): T2 sequence (P30411 1-391)

[6] = molecular target: T4, dog B2 receptor (Canis lupus familiaris, UniProt Q9BDQ4); assay: In vitro pharmacology testing, antagonist potency; format: biochemical
T4 sequence (Q9BDQ4 1-392): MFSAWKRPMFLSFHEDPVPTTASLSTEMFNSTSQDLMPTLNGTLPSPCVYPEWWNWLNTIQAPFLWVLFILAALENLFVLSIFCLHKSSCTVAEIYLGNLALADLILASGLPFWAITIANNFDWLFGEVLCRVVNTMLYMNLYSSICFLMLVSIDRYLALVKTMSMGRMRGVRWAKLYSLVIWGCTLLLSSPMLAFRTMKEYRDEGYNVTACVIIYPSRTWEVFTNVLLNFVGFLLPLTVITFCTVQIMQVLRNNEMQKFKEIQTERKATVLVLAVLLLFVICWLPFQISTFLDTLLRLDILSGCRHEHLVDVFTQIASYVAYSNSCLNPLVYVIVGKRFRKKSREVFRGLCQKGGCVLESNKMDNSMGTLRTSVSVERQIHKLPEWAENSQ

[7] = molecular target: T5, mouse B2 receptor (Mus musculus, UniProt P32299); assay: In vitro pharmacology testing, antagonist potency; format: biochemical
T5 sequence (P32299 1-392): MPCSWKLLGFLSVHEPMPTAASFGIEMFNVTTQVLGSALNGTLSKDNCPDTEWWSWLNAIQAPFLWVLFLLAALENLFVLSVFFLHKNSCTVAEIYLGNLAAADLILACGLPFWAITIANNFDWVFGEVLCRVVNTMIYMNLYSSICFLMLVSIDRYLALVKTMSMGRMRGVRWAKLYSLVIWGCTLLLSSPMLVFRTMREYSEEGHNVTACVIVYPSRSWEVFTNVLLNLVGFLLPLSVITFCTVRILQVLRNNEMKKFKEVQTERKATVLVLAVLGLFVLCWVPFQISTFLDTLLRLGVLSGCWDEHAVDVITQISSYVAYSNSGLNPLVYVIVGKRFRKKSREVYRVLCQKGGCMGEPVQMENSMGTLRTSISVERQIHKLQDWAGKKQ

Compound: [2H][C@@](C)(NC(=O)COC(F)F)c1cc(F)cc(Cl)c1COc1cccc2c(-c3ncnn3C)cc(C)nc12 [API, (S)-N-(1-deutero-1-(3-chloro-5-fluoro-2-((2-methyl-4-(1-methyl-1H-1,2,4-triazol-5-yl)quinolin-8-yloxy)methyl)phenyl)ethyl)-2-(difluoromethoxy)acetamide monohydrate]
- antagonist potency [1]: low antagonist potency
- time up to which API plasma concentrations were quantifiable [2]: up to 24 hours
- antagonist potency [3]: high antagonist potency
- estimated EC50 (therapeutic efficacious threshold plasma concentration) [4]: 2.4 ng/mL
- estimated EC85 (therapeutic efficacious threshold plasma concentration) [4]: 13.8 ng/mL
- antagonist potency [5]: high antagonist potency
- antagonist potency [6]: low antagonist potency
- antagonist potency [7]: low antagonist potency
